# Assay results from patent US8153559B2, “Certain plant growth regulators (PGRs) as safener to Glyphosate for application to Glyphosate-tolerant crops” (CP Bio, Inc., priority 2004, dated 2012).
# Test system: Round-Up Ready crops
# Test: Field tests on use of Glyphosate on Round-Up Ready crops
# Type: in vivo
# Conditions: Glyphosate-tolerant (Round-Up Ready) crops
# Source text: This adverse effect is referred to as the Glyphosate's phytotoxicity in present application.
smiles,measurement,value
O=C(O)CNCP(=O)(O)O [Glyphosate],effect on the growth of Round-Up Ready crops (Glyphosate's phytotoxicity),substantial adverse effect to the growth
